According to the supplement of paper PMC11061612:

Legend:
Capivasertib = compound: C1CN(CCC1(C(=O)N[C@@H](CCO)C2=CC=C(C=C2)Cl)N)C3=NC=NC4=C3C=CN4 [Capivasertib]; settings: max 10 µM
How it was run: (§1)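 After 24 hours at 37°C and 5% CO2 in 1536-well plates holding 7.5 μl of DMEM/F12 or RPMI with 10% FBS, cancer cell lines were dosed for 72 hours, with final DMSO typically 0.2%. Viability came from CellTiter-Glo 2.0 luminescence, scaled between the means of blank wells and DMSO wells. A non-linear mixed effects model fitted a two-parameter logistic curve to each dose response to give the single-agent IC50.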

AZD1775 = compound: C=CCn1c(=O)c2cnc(Nc3ccc(N4CCN(C)CC4)cc3)nc2n1-c1cccc(C(C)(C)O)n1 [AZD1775]; settings: max 3 µM
How it was run: as §1

Trametinib = compound: CC(=O)Nc1cccc(-n2c(=O)n(C3CC3)c(=O)c3c(Nc4ccc(I)cc4F)n(C)c(=O)c(C)c32)c1 [Trametinib]; settings: max 1 µM
How it was run: as §1

Palbociclib = compound: CC(=O)c1c(C)c2cnc(Nc3ccc(N4CCNCC4)cn3)nc2n(C2CCCC2)c1=O [Palbociclib]; settings: max 10 µM
How it was run: as §1

AZD1390 = compound: CC(C)n1c(=O)n(C)c2cnc3cc(F)c(-c4ccc(OCCCN5CCCCC5)nc4)cc3c21 [AZD1390]; settings: max 0.3 µM
How it was run: as §1

Venetoclax = compound: CC1(C)CCC(CN2CCN(c3ccc(C(=O)NS(=O)(=O)c4ccc(NCC5CCOCC5)c([N+](=O)[O-])c4)c(Oc4cnc5[nH]ccc5c4)c3)CC2)=C(c2ccc(Cl)cc2)C1 [Venetoclax]; settings: max 1 µM
How it was run: as §1

Dasatinib = compound: CC1=C(C(=CC=C1)Cl)NC(=O)C2=CN=C(S2)NC3=CC(=NC(=N3)C)N4CCN(CC4)CCO [Dasatinib]; settings: max 2 µM
How it was run: as §1

SG3199 = compound: CC1=CN2[C@@H](C1)C=NC3=CC(=C(C=C3C2=O)OC)OCCCCCOC4=C(C=C5C(=C4)N=C[C@@H]6CC(=CN6C5=O)C)OC [SG3199]; settings: max 0.001 µM
How it was run: as §1

AZD2811 = compound: CCN(CCO)CCCOc1ccc2c(Nc3cc(CC(=O)Nc4cccc(F)c4)[nH]n3)ncnc2c1 [AZD2811]; settings: max 1 µM
How it was run: as §1

SN-38 = compound: CCc1c2c(nc3ccc(O)cc13)-c1cc3c(c(=O)n1C2)COC(=O)[C@]3(O)CC [SN-38]; settings: max 0.3 µM
How it was run: as §1

AZD0156 = compound: CN(C)CCCOc1ccc(-c2ccc3ncc4c(c3c2)n(C2CCOCC2)c(=O)n4C)cn1 [AZD0156]; settings: max 3 µM
How it was run: as §1

AZD4320 = compound: CN(CC[C@H](CSC1=CC=CC=C1)NC2=C(C=C(C=C2)S(=O)(=O)NC(=O)C3=CC=C(C=C3)N4CCC(CC4)[C@H](C5=CC=CC=C5C6=CC=C(C=C6)Cl)O)S(=O)(=O)C(F)(F)F)CCO [AZD4320]; settings: max 1 µM
How it was run: as §1

Alisertib = compound: COc1cc(Nc2ncc3c(n2)-c2ccc(Cl)cc2C(c2c(F)cccc2OC)=NC3)ccc1C(=O)O [Alisertib]; settings: max 10 µM
How it was run: as §1

Gefitinib = compound: COc1cc2ncnc(Nc3ccc(F)c(Cl)c3)c2cc1OCCCN1CCOCC1 [Gefitinib]; settings: max 10 µM
How it was run: as §1

Prexasertib = compound: COc1cccc(OCCCN)c1-c1cc(Nc2cnc(C#N)cn2)n[nH]1 [Prexasertib]; settings: max 1 µM
How it was run: as §1

Doxorubicin = compound: COc1cccc2c1C(=O)c1c(O)c3c(c(O)c1C2=O)C[C@@](O)(C(=O)CO)C[C@@H]3O[C@H]1C[C@H](N)[C@H](O)[C@H](C)O1 [Doxorubicin]; settings: max 1 µM
How it was run: as §1

AZD5153 = compound: COc1nnc2ccc(N3CCC(c4ccc(OCCN5CCN(C)C(=O)[C@H]5C)cc4)CC3)nn12 [AZD5153]; settings: max 1 µM
How it was run: as §1

Lapatinib = compound: CS(=O)(=O)CCNCc1ccc(-c2ccc3ncnc(Nc4ccc(OCc5cccc(F)c5)c(Cl)c4)c3c2)o1 [Lapatinib]; settings: max 10 µM
How it was run: as §1

AZD8186 = compound: C[C@@H](Nc1cc(F)cc(F)c1)c1cc(C(=O)N(C)C)cc2c(=O)cc(N3CCOCC3)oc12 [AZD8186]; settings: max 3 µM
How it was run: as §1

Crizotinib = compound: C[C@@H](Oc1cc(-c2cnn(C3CCNCC3)c2)cnc1N)c1c(Cl)ccc(F)c1Cl [Crizotinib]; settings: max 10 µM
How it was run: as §1

Savolitinib = compound: C[C@@H](c1ccc2nccn2c1)n1nnc2ncc(-c3cnn(C)c3)nc21 [Savolitinib]; settings: max 1 µM
How it was run: as §1

AZD6738 = compound: C[C@@H]1COCCN1C2=NC(=NC(=C2)C3(CC3)[S@](=N)(=O)C)C4=C5C=CNC5=NC=C4 [AZD6738]; settings: max 10 µM
How it was run: as §1

AZD5991 = compound: Cc1c2c(nn1C)CSCc1cc(n(C)n1)CSc1cc(c3ccccc3c1)OCCCc1c(C(=O)O)n(C)c3c-2c(Cl)ccc13 [AZD5991]; settings: max 1 µM
How it was run: as §1

AZD7648 = compound: Cc1cc2ncnn2cc1Nc1ncc2c(n1)n(C1CCOCC1)c(=O)n2C [AZD7648]; settings: max 10 µM
How it was run: as §1

Taselisib = compound: Cc1nc(-c2cn3c(n2)-c2ccc(-c4cnn(C(C)(C)C(N)=O)c4)cc2OCC3)n(C(C)C)n1 [Taselisib]; settings: max 10 µM
How it was run: as §1

Selumetinib = compound: Cn1cnc2c(F)c(Nc3ccc(Br)cc3Cl)c(C(=O)NOCCO)cc21 [Selumetinib]; settings: max 10 µM
How it was run: as §1

Olaparib = compound: O=C(c1cc(Cc2n[nH]c(=O)c3ccccc23)ccc1F)N1CCN(C(=O)C2CC2)CC1 [Olaparib]; settings: max 10 µM
How it was run: as §1

Row | Cell Line | IC50, cell viability 72 h (Capivasertib) [µM] | IC50, cell viability 72 h (AZD1775) [nM] | IC50, cell viability 72 h (Trametinib) [nM] | IC50, cell viability 72 h (Palbociclib) [µM] | IC50, cell viability 72 h (AZD1390) [nM] | IC50, cell viability 72 h (Venetoclax) [nM] | IC50, cell viability 72 h (Dasatinib) [nM] | IC50, cell viability 72 h (SG3199) [nM] | IC50, cell viability 72 h (AZD2811) [nM] | IC50, cell viability 72 h (SN-38) [nM] | IC50, cell viability 72 h (AZD0156) [nM] | IC50, cell viability 72 h (AZD4320) [nM] | IC50, cell viability 72 h (Alisertib) [µM] | IC50, cell viability 72 h (Gefitinib) [µM] | IC50, cell viability 72 h (Prexasertib) [nM] | IC50, cell viability 72 h (Doxorubicin) [nM] | IC50, cell viability 72 h (AZD5153) [nM] | IC50, cell viability 72 h (Lapatinib) [µM] | IC50, cell viability 72 h (AZD8186) [nM] | IC50, cell viability 72 h (Crizotinib) [µM] | IC50, cell viability 72 h (Savolitinib) [nM] | IC50, cell viability 72 h (AZD6738) [µM] | IC50, cell viability 72 h (AZD5991) [nM] | IC50, cell viability 72 h (AZD7648) [µM] | IC50, cell viability 72 h (Taselisib) [µM] | IC50, cell viability 72 h (Selumetinib) [µM] | IC50, cell viability 72 h (Olaparib) [µM]
1 | A253 (Head and Neck Carcinoma) | 4.08 | 1130 | 746 | > 10 | > 300 | > 1000 | > 2000 | > 1 | > 1000 | 18.7 | > 3000 | > 1000 | > 10 | > 10 | 110 | 177 | > 1000 | > 10 | > 3000 | > 10 | > 1000 | 4.57 | 447 | > 10 | 6.73 | > 10 | > 10
2 | AU565 (Breast Carcinoma) | 7.95 | 435 | > 1000 | > 10 | > 300 | > 1000 | > 2000 | > 1 | > 1000 | 14.5 | > 3000 | > 1000 | 9.28 | 2.74 | 133 | 634 | > 1000 | 0.358 | > 3000 | > 10 | > 1000 | > 10 | 68.3 | > 10 | 3.15 | > 10 | > 10
3 | CA46 (Burkitt's Lymphoma) | > 10 | 579 | > 1000 | > 10 | > 300 | > 1000 | > 2000 | > 1 | > 1000 | 135 | > 3000 | > 1000 | > 10 | > 10 | 142 | > 1000 | 232 | > 10 | > 3000 | > 10 | > 1000 | > 10 | > 1000 | > 10 | > 10 | > 10 | > 10
